Results: the NIST ThermoML archive (doi:10.1007/s10765-007-0223-x)

Experiment: xn = mol fraction of the nth substance listed
Conditions: 101 kPa, Liquid; for speed of sound: Single path-length method

COC(C)(C)C [2-methoxy-2-methylpropane] + Cc1ccccc1
Conditions	mass density [kg/m3]	speed of sound [m/s]
288.15 K, x1 = 0.053	864.558	1332.9
288.15 K, x1 = 0.116	856.488	1315.9
288.15 K, x1 = 0.199	845.884	1295.2
288.15 K, x1 = 0.301	832.848	1268.1
288.15 K, x1 = 0.371	824.068	1249.5
288.15 K, x1 = 0.463	812.346	1225.8
288.15 K, x1 = 0.61	793.998	1186.3
288.15 K, x1 = 0.688	784.329	1166
288.15 K, x1 = 0.797	770.803	1137.3
288.15 K, x1 = 0.902	757.81	1108.5
288.15 K, x1 = 0.943	752.561	1097.5
288.15 K, x1 = 1	744.861	1083.4
290.65 K, x1 = 0.053	862.236	1321.9
290.65 K, x1 = 0.116	854.153	1304.8
290.65 K, x1 = 0.199	843.533	1284.2
290.65 K, x1 = 0.301	830.472	1257.4
290.65 K, x1 = 0.371	821.675	1238.5
290.65 K, x1 = 0.463	809.929	1215
290.65 K, x1 = 0.61	791.542	1175.6
290.65 K, x1 = 0.688	781.848	1155
290.65 K, x1 = 0.797	768.289	1126.6
290.65 K, x1 = 0.902	755.262	1098.2
290.65 K, x1 = 0.943	750	1086.8
290.65 K, x1 = 1	742.259	1071.6
293.15 K, x1 = 0.053	859.905	1310.9
293.15 K, x1 = 0.116	851.805	1293.8
293.15 K, x1 = 0.199	841.167	1273.2
293.15 K, x1 = 0.301	828.083	1246.4
293.15 K, x1 = 0.371	819.27	1227.5
293.15 K, x1 = 0.463	807.497	1203.9
293.15 K, x1 = 0.61	789.068	1164.7
293.15 K, x1 = 0.688	779.352	1143.9
293.15 K, x1 = 0.797	765.757	1115.7
293.15 K, x1 = 0.902	752.693	1087.4
293.15 K, x1 = 0.943	747.415	1075.9
293.15 K, x1 = 1	739.654	1060
295.65 K, x1 = 0.053	857.569	1299.9
295.65 K, x1 = 0.116	849.458	1282.8
295.65 K, x1 = 0.199	838.799	1262.2
295.65 K, x1 = 0.301	825.688	1235.4
295.65 K, x1 = 0.371	816.857	1216.5
295.65 K, x1 = 0.463	805.058	1193
295.65 K, x1 = 0.61	786.587	1153.6
295.65 K, x1 = 0.688	776.847	1132.8
295.65 K, x1 = 0.797	763.216	1104.9
295.65 K, x1 = 0.902	750.116	1076.7
295.65 K, x1 = 0.943	744.822	1064.8
295.65 K, x1 = 1	737.036	1048.5
298.15 K, x1 = 0.053	855.229	1288.9
298.15 K, x1 = 0.116	847.105	1271.8
298.15 K, x1 = 0.199	836.426	1251.2
298.15 K, x1 = 0.301	823.289	1224.5
298.15 K, x1 = 0.371	814.439	1205.5
298.15 K, x1 = 0.463	802.616	1181.8
298.15 K, x1 = 0.61	784.1	1142.6
298.15 K, x1 = 0.688	774.335	1122
298.15 K, x1 = 0.797	760.667	1093.8
298.15 K, x1 = 0.902	747.528	1065.7
298.15 K, x1 = 0.943	742.221	1053.5
298.15 K, x1 = 1	734.406	1036.9
300.65 K, x1 = 0.053	852.886	1278.1
300.65 K, x1 = 0.116	844.749	1260.8
300.65 K, x1 = 0.199	834.049	1240.2
300.65 K, x1 = 0.301	820.886	1213.6
300.65 K, x1 = 0.371	812.02	1194.5
300.65 K, x1 = 0.463	800.168	1170.8
300.65 K, x1 = 0.61	781.607	1131.6
300.65 K, x1 = 0.688	771.814	1111.4
300.65 K, x1 = 0.797	758.108	1082.6
300.65 K, x1 = 0.902	744.931	1054.4
300.65 K, x1 = 0.943	739.606	1042.1
300.65 K, x1 = 1	731.766	1025.4
303.15 K, x1 = 0.053	850.544	1267.3
303.15 K, x1 = 0.116	842.388	1250
303.15 K, x1 = 0.199	831.668	1229.3
303.15 K, x1 = 0.301	818.477	1202.6
303.15 K, x1 = 0.371	809.592	1183.6
303.15 K, x1 = 0.463	797.712	1159.8
303.15 K, x1 = 0.61	779.104	1120.6
303.15 K, x1 = 0.688	769.287	1100.2
303.15 K, x1 = 0.797	755.539	1071.4
303.15 K, x1 = 0.902	742.321	1043.1
303.15 K, x1 = 0.943	736.98	1030.7
303.15 K, x1 = 1	729.112	1013.9
305.65 K, x1 = 0.053	848.195	1256.5
305.65 K, x1 = 0.116	840.022	1239.1
305.65 K, x1 = 0.199	829.282	1218.4
305.65 K, x1 = 0.301	816.062	1191.7
305.65 K, x1 = 0.371	807.159	1172.6
305.65 K, x1 = 0.463	795.249	1148.8
305.65 K, x1 = 0.61	776.592	1109.7
305.65 K, x1 = 0.688	766.747	1089
305.65 K, x1 = 0.797	752.961	1060.2
305.65 K, x1 = 0.902	739.7	1031.7
305.65 K, x1 = 0.943	734.343	1019.3
305.65 K, x1 = 1	726.444	1002.4
308.15 K, x1 = 0.053	845.842	1245.8
308.15 K, x1 = 0.116	837.654	1228.3
308.15 K, x1 = 0.199	826.891	1207.5
308.15 K, x1 = 0.301	813.64	1180.9
308.15 K, x1 = 0.371	804.72	1161.8
308.15 K, x1 = 0.463	792.78	1137.8
308.15 K, x1 = 0.61	774.07	1098.8
308.15 K, x1 = 0.688	764.201	1077.9
308.15 K, x1 = 0.797	750.369	1049
308.15 K, x1 = 0.902	737.069	1020.4
308.15 K, x1 = 0.943	731.692	1008
308.15 K, x1 = 1	723.763	990.99
310.65 K, x1 = 0.053	843.486	1235.2
310.65 K, x1 = 0.116	835.279	1217.6
310.65 K, x1 = 0.199	824.494	1196.7
310.65 K, x1 = 0.301	811.214	1170.1
310.65 K, x1 = 0.371	802.273	1150.9
310.65 K, x1 = 0.463	790.303	1126.8
310.65 K, x1 = 0.61	771.541	1087.7
310.65 K, x1 = 0.688	761.642	1066.9
310.65 K, x1 = 0.797	747.769	1037.9
310.65 K, x1 = 0.902	734.423	1009.1
310.65 K, x1 = 0.943	729.029	996.73
310.65 K, x1 = 1	721.069	979.62
313.15 K, x1 = 0.053	841.124	1224.5
313.15 K, x1 = 0.116	832.902	1207
313.15 K, x1 = 0.199	822.092	1186
313.15 K, x1 = 0.301	808.78	1159.3
313.15 K, x1 = 0.371	799.819	1140.1
313.15 K, x1 = 0.463	787.815	1115.9
313.15 K, x1 = 0.61	769.004	1076.7
313.15 K, x1 = 0.688	759.075	1055.9
313.15 K, x1 = 0.797	745.157	1026.8
313.15 K, x1 = 0.902	731.765	997.95
313.15 K, x1 = 0.943	726.353	985.49
313.15 K, x1 = 1	718.357	968.16
315.65 K, x1 = 0.053	838.757	1214
315.65 K, x1 = 0.116	830.517	1196.4
315.65 K, x1 = 0.199	819.682	1175.3
315.65 K, x1 = 0.301	806.341	1148.5
315.65 K, x1 = 0.371	797.359	1129.3
315.65 K, x1 = 0.463	785.32	1105
315.65 K, x1 = 0.61	766.457	1065.8
315.65 K, x1 = 0.688	756.499	1044.9
315.65 K, x1 = 0.797	742.532	1015.6
315.65 K, x1 = 0.902	729.096	986.8
315.65 K, x1 = 0.943	723.661	974.25
315.65 K, x1 = 1	715.636	956.8
318.15 K, x1 = 0.053	836.384	1203.4
318.15 K, x1 = 0.116	828.127	1185.8
318.15 K, x1 = 0.199	817.267	1164.7
318.15 K, x1 = 0.301	803.893	1137.8
318.15 K, x1 = 0.371	794.887	1118.5
318.15 K, x1 = 0.463	782.821	1094.2
318.15 K, x1 = 0.61	763.899	1054.8
318.15 K, x1 = 0.688	753.908	1033.8
318.15 K, x1 = 0.797	739.897	1004.6
318.15 K, x1 = 0.902	726.409	975.59
318.15 K, x1 = 0.943	720.958	963
318.15 K, x1 = 1	712.897	945.54
320.65 K, x1 = 0.053	834.008	1192.9
320.65 K, x1 = 0.116	825.73	1175.2
320.65 K, x1 = 0.199	814.847	1154.1
320.65 K, x1 = 0.301	801.438	1127
320.65 K, x1 = 0.371	792.407	1107.7
320.65 K, x1 = 0.463	780.31	1083.4
320.65 K, x1 = 0.61	761.327	1043.8
320.65 K, x1 = 0.688	751.303	1022.8
320.65 K, x1 = 0.797	737.246	993.5
320.65 K, x1 = 0.902	723.713	964.4
320.65 K, x1 = 0.943	718.237	951.77
320.65 K, x1 = 1	710.141	934.24
323.15 K, x1 = 0.053	831.624	1182.4
323.15 K, x1 = 0.116	823.329	1164.6
323.15 K, x1 = 0.199	812.42	1143.5
323.15 K, x1 = 0.301	798.979	1116.4
323.15 K, x1 = 0.371	789.92	1097
323.15 K, x1 = 0.463	777.787	1072.5
323.15 K, x1 = 0.61	758.745	1032.9
323.15 K, x1 = 0.688	748.686	1011.9
323.15 K, x1 = 0.797	734.592	982.48
323.15 K, x1 = 0.902	721	953.28
323.15 K, x1 = 0.943	715.503	940.59
323.15 K, x1 = 1	707.381	922.97
